≈ marks a conversion by molar mass, not a printed value. Where a name gives a salt, the structure may show the parent alone. Blank lines part the entries; values can stand above or below the compound they belong to.
Tests used:
[1] = tested on: Streptococcus pyogenes C203; assay: MIC by agar-dilution technique, S. pyogenes C203; type: cell-based; details: IsoSensitest agar, inoculum 10^4 CFU/spot, 37° C., 24 hours
Method: (§1) The following results were obtained on a standard in vitro test system. The activity is described in terms of the minimum inhibitory concentration (MIC) determined by the agar-dilution technique with an inoculum size of 10^4 CFU/spot.
(§2) The organisms were tested on a standard semi-defined susceptability test medium (IsoSensitest agar), using an inoculum of 10^4 CFU/spot and an incubation temperature of 37° C. for 24 hours. Typically, compounds are active in the range 0.01 to 128 μg/ml.

Bacillus subtilis = assay: MIC by agar-dilution technique, B. subtilis; type: cell-based; details: IsoSensitest agar, inoculum 10^4 CFU/spot, 37° C., 24 hours
Method: as §1, §2

[2] = tested on: Coagulase Negative Staphylococci MR; assay: MIC by agar-dilution technique, coagulase negative staphylococci MR; type: cell-based; details: IsoSensitest agar, inoculum 10^4 CFU/spot, 37° C., 24 hours, methicillin resistant
Method: as §1, §2

[3] = tested on: Staphylococcus aureus Oxford; assay: MIC by agar-dilution technique, S. aureus Oxford; type: cell-based; details: IsoSensitest agar, inoculum 10^4 CFU/spot, 37° C., 24 hours, Oxford strain
Method: as §1, §2

[4] = tested on: Coagulase Negative Staphylococci MS; assay: MIC by agar-dilution technique, coagulase negative staphylococci MS; type: cell-based; details: IsoSensitest agar, inoculum 10^4 CFU/spot, 37° C., 24 hours, methicillin sensitive
Method: as §1, §2

[5] = tested on: Staphylococcus aureus Novb. Res.; assay: MIC by agar-dilution technique, S. aureus novobiocin resistant; type: cell-based; details: 24 h
Method: as §1, §2

Enterococcus faecalis = assay: MIC by agar-dilution technique, E. faecalis; type: cell-based; details: IsoSensitest agar, inoculum 10^4 CFU/spot, 37° C., 24 hours
Method: as §1, §2

[6] = tested on: Staphylococcus aureus MRQR; assay: MIC by agar-dilution technique, S. aureus MRQR; type: cell-based; details: IsoSensitest agar, inoculum 10^4 CFU/spot, 37° C., 24 hours, methicillin resistant quinolone resistant
Method: as §1, §2

Solubility in water = type: physicochemical; details: dihydrochloride salt

Structure (SMILES): CC(=O)NC[C@H]1CN(c2ccc(-n3cnc(C=CC#N)c3)c(F)c2)C(=O)O1 [Example 2]
- MIC [1]: 0.125 µg/mL (≈ 0.338 µM)
- MIC (Bacillus subtilis): 0.25 µg/mL (≈ 0.677 µM)
- MIC [2]: 0.25 µg/mL (≈ 0.677 µM)
- MIC [3]: 0.125 µg/mL (≈ 0.338 µM)
- MIC [4]: 0.06 µg/mL (≈ 0.162 µM)
- MIC [5]: 0.25 µg/mL (≈ 0.677 µM)
- MIC (Enterococcus faecalis): 0.25 µg/mL (≈ 0.677 µM)
- MIC [6]: 1 µg/mL (≈ 2.71 µM)

- solubility (Solubility in water): ~10000 µg/mL
Structure (SMILES): CC(=O)NC[C@H]1CN(c2ccc(-n3cnc(/C=C/c4ccccn4)c3)c(F)c2)C(=O)O1 [Example 11 dihydrochloride salt, N-[(5S)-3-(3-Fluoro-4-(4-(E-2-(Pyrid-2-yl)ethenyl)imidazol-1-yl)phenyl)-2-oxooxazolidin-5-ylmethyl]acetamide]
